Data reported in US20220251163A1 (Sinopep-Allsino Biopharmaceutical Co., Ltd., priority 2019, published 2022).
*1 amine or outer side, *2 acyl side, *3 side chain or, on linkers, in order; H or OH if unused. Where a SMILES comes first, the peptide text is derived from it. Side-chain parts run from the residue outwards. The star is where a group is joined. C18 diacid = O=C(O)CCCCCCCCCCCCCCCCC(=O)*; γGlu = O=C(O)[C@H](CCC(=O)[*:2])N[*:1]; AEEA = NCCOCCOCC(=O)O

What was measured:
mGLP-1R = molecular target: T1, mGLP-1R (Mus musculus, UniProt O35659); test: GLP-1R agonist activity, cAMP in transfected HEK293 cells; assay type: cell-based
T1 construct: expressed in transfected cells; host or cells: HEK293
T1 sequence (O35659 22-463): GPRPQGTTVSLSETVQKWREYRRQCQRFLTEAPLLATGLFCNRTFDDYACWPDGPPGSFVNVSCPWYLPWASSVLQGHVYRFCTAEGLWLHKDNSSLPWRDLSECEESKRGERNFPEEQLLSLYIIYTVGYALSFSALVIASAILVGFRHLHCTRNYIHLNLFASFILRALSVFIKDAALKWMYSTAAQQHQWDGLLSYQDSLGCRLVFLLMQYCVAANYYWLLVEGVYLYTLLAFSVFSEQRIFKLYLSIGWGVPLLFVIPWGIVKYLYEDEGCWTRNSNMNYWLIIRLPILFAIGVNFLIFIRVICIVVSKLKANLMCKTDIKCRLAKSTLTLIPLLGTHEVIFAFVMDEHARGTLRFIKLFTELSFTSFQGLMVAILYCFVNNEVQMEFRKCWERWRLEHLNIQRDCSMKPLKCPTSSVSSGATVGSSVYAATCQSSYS
Description: HEK293 cells were co-transfected with cDNA encoding GLP-1R or GIPR. In a test for determining the compound, the cells were inoculated in a 96-well plate 2 h in advance, the polypeptide compound was dissolved with DMSO, and diluted to different multiples with a culture medium containing 0.1% bovine serum albumin and added to the co-transfected cells. After the cells were incubated for 20 min, fluorescence values were determined through microplate reader of an ELISA kit of the Cisbo Company, a standard curve was established to convert the fluorescence values into corresponding cAMP values, and the EC50 value of the compound was calculated through nonlinear regression of Graphpad Prism 5.0 software.

ob/ob mice = test: Blood glucose reducing experiment, single subcutaneous injection in ob/ob mice; assay type: in vivo; conditions: 100 μg/kg single s.c.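 Note: random blood glucose read at each time point, decrease rate given as percentage fall versus the model control group.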
Description: The mice in each group received random blood glucose value measurement before (0 h) administration and 2, 4, 6, 10 and 24 h after administration, and then the time for measuring the random blood glucose was adjusted and prolonged to 34, 48, 58 or 72 h after administration according to the blood glucose condition of the mice in each group. Meanwhile, the random weight of the mice in each group before (0 h) administration and 24 h after administration was weighed, and then the random weight of the mice corresponding to the random blood glucose measurement condition 48 or 72 h after administration was weighed. The blood glucose decrease rate, the blood glucose curve area (AUC0-24 h Glu) within 24 h after administration and the decrease rate were calculated according to the following formula.
Blood glucose decrease rate=(blood glucose in the model control group−blood glucose in the administration group)/blood glucose in the model control group×100%
BG0, BG2, BG4, BG6, BG10 and BG24 represented the blood glucose values before administration (0 h) and 2, 4, 6, 10 and 24 h after administration respectively.
AUC0-24 h Glu(mmol/Lh·r) decrease rate=(model control group AUC0-24 h Glu−administration group AUC0-24 h Glu/model control group AUC0-24 h Glu×100%
Experiments were carried out twice, at an interval of 8-10 days.

[1] = Effect on random weight of ob/ob mice after single subcutaneous injection; assay type: in vivo; conditions: 100 μg/kg single s.c., X ± s, n = 7
mGIPR = molecular target: T2, mGIPR (Mus musculus, UniProt Q0P543); test: GIPR agonist activity, cAMP in transfected HEK293 cells; assay type: cell-based
T2 construct: expressed in transfected cells; host or cells: HEK293
T2 sequence (Q0P543 19-460): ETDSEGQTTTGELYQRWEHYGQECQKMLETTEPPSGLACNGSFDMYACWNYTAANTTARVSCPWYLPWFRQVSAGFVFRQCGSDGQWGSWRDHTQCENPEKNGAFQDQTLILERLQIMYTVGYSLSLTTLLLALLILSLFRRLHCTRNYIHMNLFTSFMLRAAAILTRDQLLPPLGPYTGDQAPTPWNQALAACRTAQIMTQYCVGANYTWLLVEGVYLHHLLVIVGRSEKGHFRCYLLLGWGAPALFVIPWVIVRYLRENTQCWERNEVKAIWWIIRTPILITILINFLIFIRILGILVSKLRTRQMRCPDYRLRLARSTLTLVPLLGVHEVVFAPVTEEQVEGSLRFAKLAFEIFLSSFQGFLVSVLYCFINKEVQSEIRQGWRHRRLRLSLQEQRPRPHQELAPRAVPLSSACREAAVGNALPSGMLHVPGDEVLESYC
Description: HEK293 cells were co-transfected with cDNA encoding GLP-1R or GIPR. In a test for determining the compound, the cells were inoculated in a 96-well plate 2 h in advance, the polypeptide compound was dissolved with DMSO, and diluted to different multiples with a culture medium containing 0.1% bovine serum albumin and added to the co-transfected cells.

CC[C@H](C)[C@H](NC(=O)[C@H](CC(C)C)NC(=O)[C@H](Cc1c[nH]c2ccccc12)NC(=O)[C@H](CCC(N)=O)NC(=O)[C@@H](NC(=O)[C@H](Cc1ccccc1)NC(=O)[C@H](C)NC(=O)[C@H](CCCCNC(=O)COCCOCCNC(=O)COCCOCCNC(=O)CC[C@H](NC(=O)CCCCCCCCCCCCCCCCC(=O)O)C(=O)O)NC(=O)[C@H](CCC(N)=O)NC(=O)[C@H](C)NC(=O)[C@@H](NC(=O)[C@H](CCCCN)NC(=O)[C@H](CC(=O)O)NC(=O)[C@H](CC(C)C)NC(=O)[C@@H](NC(=O)[C@@H](NC(=O)[C@H](CO)NC(=O)[C@H](Cc1ccc(O)cc1)NC(=O)[C@H](CC(=O)O)NC(=O)[C@H](CO)NC(=O)[C@@H](NC(=O)[C@H](Cc1ccccc1)NC(=O)[C@@H](NC(=O)CNC(=O)[C@H](CCC(=O)O)NC(=O)[C@@H](NC(=O)[C@@H](N)Cc1ccc(O)cc1)C(C)C)[C@@H](C)O)[C@@H](C)O)[C@@H](C)CC)C(C)C)[C@@H](C)CC)C(C)C)C(=O)N[C@@H](C)C(=O)NCC(=O)NCC(=O)N1CCC[C@H]1C(=O)N[C@@H](CO)C(=O)N[C@@H](CO)C(=O)NCC(=O)N[C@@H](C)C(=O)N1CCC[C@H]1C(=O)N1CCC[C@H]1C(=O)N1CCC[C@H]1C(=O)N[C@@H](CO)C(N)=O [ID NO: 1] (H-YVEGTFTSDYSIVLDKIAQK([AEEA-AEEA-γGlu-C18 diacid])AFVQWLIAGGPSSGAPPPS-NH2)
EC50 (mGLP-1R): 14.6 pM | Blood glucose at different time after administration, 0 h (ob/ob mice; 0 h (before administration), X ± s, n = 7): 20.31 ± 0.99 mmol/L | Decrease rate of blood glucose at different time after administration, 2 h (ob/ob mice; 2 h): 50.2% | Blood glucose at different time after administration, 2 h (ob/ob mice; 2 h, X ± s, n = 7): 10.12 ± 0.87 mmol/L | Decrease rate of blood glucose at different time after administration, 4 h (ob/ob mice; 4 h): 51.1% | Blood glucose at different time after administration, 4 h (ob/ob mice; 4 h, X ± s, n = 7): 9.94 ± 0.86 mmol/L | Decrease rate of blood glucose at different time after administration, 6 h (ob/ob mice; 6 h): 51.6% | Blood glucose at different time after administration, 6 h (ob/ob mice; 6 h, X ± s, n = 7): 9.83 ± 0.87 mmol/L | Decrease rate of blood glucose at different time after administration, 10 h (ob/ob mice; 10 h): 47.0% | Blood glucose at different time after administration, 10 h (ob/ob mice; 10 h, X ± s, n = 7): 10.76 ± 1.12 mmol/L | Decrease rate of blood glucose at different time after administration, 24 h (ob/ob mice; 24 h): 41.5% | Blood glucose at different time after administration, 24 h (ob/ob mice; 24 h, X ± s, n = 7): 11.89 ± 2.12 mmol/L | Decrease rate of blood glucose at different time after administration, 34 h (ob/ob mice; 34 h): 31.4% | Blood glucose at different time after administration, 34 h (ob/ob mice; 34 h, X ± s, n = 7): 13.93 ± 1.01 mmol/L | Decrease rate of blood glucose at different time after administration, 48 h (ob/ob mice; 48 h): 14.7% | AUC0-24 h Glu (ob/ob mice; blood glucose curve area within 24 h, X ± s, n = 7): 269.99 ± 19.45 mmol·h/L | AUC0-24 h Glu Decrease rate (ob/ob mice; versus model control group): 47.1% | Changes of random body weight at different time after administration, 0 h ([1]; 0 h): 0.0 ± 0.0 g | Random body weight at different time after administration, 0 h ([1]; 0 h): 43.2 ± 0.5 g | Changes of random body weight at different time after administration, 24 h ([1]; 24 h): -1.1 ± 0.2 g | Random body weight at different time after administration, 24 h ([1]; 24 h): 42.0 ± 0.5 g | Changes of random body weight at different time after administration, 48 h ([1]; 48 h): -0.6 ± 0.1 g | Random body weight at different time after administration, 48 h ([1]; 48 h): 42.7 ± 0.6 g

CC[C@H](C)[C@H](NC(=O)[C@H](CC(C)C)NC(=O)[C@H](Cc1c[nH]c2ccccc12)NC(=O)[C@H](CCC(N)=O)NC(=O)[C@@H](NC(=O)[C@H](Cc1ccccc1)NC(=O)[C@H](C)NC(=O)[C@H](CCCCNC(=O)COCCOCCNC(=O)COCCOCCNC(=O)CC[C@H](NC(=O)CCCCCCCCCCCCCCCCC(=O)O)C(=O)O)NC(=O)[C@H](CCC(N)=O)NC(=O)[C@H](C)NC(=O)[C@@H](NC(=O)[C@H](CCCCN)NC(=O)[C@H](CC(=O)O)NC(=O)[C@H](CC(C)C)NC(=O)C1(NC(=O)[C@@H](NC(=O)[C@H](CO)NC(=O)[C@H](Cc2ccc(O)cc2)NC(=O)[C@H](CC(=O)O)NC(=O)[C@H](CO)NC(=O)[C@@H](NC(=O)[C@H](Cc2ccccc2)NC(=O)[C@@H](NC(=O)CNC(=O)[C@H](CCC(=O)O)NC(=O)C2(NC(=O)[C@@H](N)Cc3ccc(O)cc3)CCC2)[C@@H](C)O)[C@@H](C)O)[C@@H](C)CC)CCC1)[C@@H](C)CC)C(C)C)C(=O)N[C@@H](C)C(=O)NCC(=O)NCC(=O)N1CCC[C@H]1C(=O)N[C@@H](CO)C(=O)N[C@@H](CO)C(=O)NCC(=O)N[C@@H](C)C(=O)N1CCC[C@H]1C(=O)N1CCC[C@H]1C(=O)N1CCC[C@H]1C(=O)N[C@@H](CO)C(N)=O [ID NO: 2]
EC50 (mGLP-1R): 6.13 pM

CC[C@H](C)[C@H](NC(=O)[C@H](CC(C)C)NC(=O)[C@H](Cc1c[nH]c2ccccc12)NC(=O)[C@H](CCC(N)=O)NC(=O)[C@@H](NC(=O)[C@H](Cc1ccccc1)NC(=O)[C@H](C)NC(=O)[C@H](CCCCNC(=O)COCCOCCNC(=O)COCCOCCNC(=O)CC[C@H](NC(=O)CCCCCCCCCCCCCCCCC(=O)O)C(=O)O)NC(=O)[C@H](CCC(N)=O)NC(=O)[C@H](C)NC(=O)[C@@H](NC(=O)[C@H](CCCCN)NC(=O)[C@H](CC(=O)O)NC(=O)[C@H](CC(C)C)NC(=O)C1(NC(=O)[C@@H](NC(=O)[C@H](CO)NC(=O)[C@H](Cc2ccc(O)cc2)NC(=O)[C@H](CC(=O)O)NC(=O)[C@H](CO)NC(=O)[C@@H](NC(=O)[C@H](Cc2ccccc2)NC(=O)[C@@H](NC(=O)CNC(=O)[C@H](CCC(=O)O)NC(=O)C2(NC(=O)[C@@H](N)Cc3ccc(O)cc3)CCCC2)[C@@H](C)O)[C@@H](C)O)[C@@H](C)CC)CCCC1)[C@@H](C)CC)C(C)C)C(=O)N[C@@H](C)C(=O)NCC(=O)NCC(=O)N1CCC[C@H]1C(=O)N[C@@H](CO)C(=O)N[C@@H](CO)C(=O)NCC(=O)N[C@@H](C)C(=O)N1CCC[C@H]1C(=O)N1CCC[C@H]1C(=O)N1CCC[C@H]1C(=O)N[C@@H](CO)C(N)=O [ID NO: 3]
EC50 (mGLP-1R): 3.96 pM | EC50 (mGIPR): 1.49 pM

CC[C@H](C)[C@H](NC(=O)[C@H](CC(C)C)NC(=O)[C@H](Cc1c[nH]c2ccccc12)NC(=O)[C@H](CCC(N)=O)NC(=O)[C@@H](NC(=O)[C@H](Cc1ccccc1)NC(=O)[C@H](C)NC(=O)[C@H](CCCCNC(=O)COCCOCCNC(=O)COCCOCCNC(=O)CC[C@H](NC(=O)CCCCCCCCCCCCCCCCC(=O)O)C(=O)O)NC(=O)[C@H](CCC(N)=O)NC(=O)[C@H](C)NC(=O)[C@@H](NC(=O)[C@H](CCCCN)NC(=O)[C@H](CC(=O)O)NC(=O)[C@H](CC(C)C)NC(=O)C(C)(C)NC(=O)[C@@H](NC(=O)[C@H](CO)NC(=O)[C@H](Cc1ccc(O)cc1)NC(=O)[C@H](CC(=O)O)NC(=O)[C@H](CO)NC(=O)[C@@H](NC(=O)[C@H](Cc1ccccc1)NC(=O)[C@@H](NC(=O)CNC(=O)[C@H](CCC(=O)O)NC(=O)C1(NC(=O)[C@@H](N)Cc2ccc(O)cc2)CCC1)[C@@H](C)O)[C@@H](C)O)[C@@H](C)CC)[C@@H](C)CC)C(C)C)C(=O)N[C@@H](C)C(=O)NCC(=O)NCC(=O)N1CCC[C@H]1C(=O)N[C@@H](CO)C(=O)N[C@@H](CO)C(=O)NCC(=O)N[C@@H](C)C(=O)N1CCC[C@H]1C(=O)N1CCC[C@H]1C(=O)N1CCC[C@H]1C(=O)N[C@@H](CO)C(N)=O [ID NO: 7]
EC50 (mGLP-1R): 5.49 pM | EC50 (mGIPR): 7.66 pM

CC[C@H](C)[C@H](NC(=O)[C@H](CC(C)C)NC(=O)[C@H](Cc1c[nH]c2ccccc12)NC(=O)[C@H](CCC(N)=O)NC(=O)[C@@H](NC(=O)[C@H](Cc1ccccc1)NC(=O)[C@H](C)NC(=O)[C@H](CCCCNC(=O)COCCOCCNC(=O)COCCOCCNC(=O)CC[C@H](NC(=O)CCCCCCCCCCCCCCCCC(=O)O)C(=O)O)NC(=O)[C@H](CCC(N)=O)NC(=O)[C@H](C)NC(=O)[C@@H](NC(=O)[C@H](CCCCN)NC(=O)[C@H](CC(=O)O)NC(=O)[C@H](CC(C)C)NC(=O)C(C)(C)NC(=O)[C@@H](NC(=O)[C@H](CO)NC(=O)[C@H](Cc1ccc(O)cc1)NC(=O)[C@H](CC(=O)O)NC(=O)[C@H](CO)NC(=O)[C@@H](NC(=O)[C@H](Cc1ccccc1)NC(=O)[C@@H](NC(=O)CNC(=O)[C@H](CCC(=O)O)NC(=O)C1(NC(=O)[C@@H](N)Cc2ccc(O)cc2)CCCC1)[C@@H](C)O)[C@@H](C)O)[C@@H](C)CC)[C@@H](C)CC)C(C)C)C(=O)N[C@@H](C)C(=O)NCC(=O)NCC(=O)N1CCC[C@H]1C(=O)N[C@@H](CO)C(=O)N[C@@H](CO)C(=O)NCC(=O)N[C@@H](C)C(=O)N1CCC[C@H]1C(=O)N1CCC[C@H]1C(=O)N1CCC[C@H]1C(=O)N[C@@H](CO)C(N)=O [ID NO: 9]
EC50 (mGLP-1R): 9.41 pM | EC50 (mGIPR): 6.98 pM
